Measured values reported in patent publication US10654884B2 (Vitae Pharmaceuticals, Inc., priority 2014, dated 2020).

How the values were obtained:
[1] = biological target: T1, CD73 on U138 neuroglioma cells (Homo sapiens, UniProt P21589); test: Inhibition of Ecto-5′-Nucleotidase Activity in U138 Neuroglioma Cells (Assay 2); format: cell-based; settings: 50 μM CMP, 2 hr at 37° C., malachite green readout, read-out: Assay 2: IC50, inhibition of ecto-5′-nucleotidase activity in U138 neuroglioma cells
T1 construct: U138 neuroglioma cells, which express CD73 on their surface; endogenous in cells; host or cells: U138 neuroglioma cells (ATCC)
T1 sequence (P21589 27-549): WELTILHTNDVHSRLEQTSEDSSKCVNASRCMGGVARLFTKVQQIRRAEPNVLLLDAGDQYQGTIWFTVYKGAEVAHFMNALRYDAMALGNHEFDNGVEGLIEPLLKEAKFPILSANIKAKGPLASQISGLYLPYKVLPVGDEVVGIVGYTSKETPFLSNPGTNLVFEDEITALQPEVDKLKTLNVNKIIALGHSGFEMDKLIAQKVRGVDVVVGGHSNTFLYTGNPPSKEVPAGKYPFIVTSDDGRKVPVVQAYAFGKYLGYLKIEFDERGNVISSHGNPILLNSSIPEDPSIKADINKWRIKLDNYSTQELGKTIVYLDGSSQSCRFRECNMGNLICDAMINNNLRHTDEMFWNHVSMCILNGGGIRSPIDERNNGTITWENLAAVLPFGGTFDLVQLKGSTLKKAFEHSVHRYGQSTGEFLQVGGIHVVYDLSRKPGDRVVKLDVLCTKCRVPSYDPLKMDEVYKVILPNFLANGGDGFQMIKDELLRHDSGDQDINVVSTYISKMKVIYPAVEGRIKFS
Method: Inhibition of Ecto-5′-Nucleotidase Activity in U138 Neuroglioma Cells (Assay 2)
U138 cells were obtained from the American Type Culture Collection (ATCC) (Manassas, Va.), and cultured in complete growth media (DMEM, 10% FBS, 1 mM L-glutamine, 100 U penicillin-streptomycin) at 37° C., 5% CO2. The day before the experiment, cells were seeded at 2,500 cells/well in 100 μL of complete media into 96-well plates. Cells were washed twice with 200 μL of assay buffer (20 mM HEPES, pH 7.4, 137 mM NaCl, 5.4 mM KCl, 1.3 mM CaCl2, 4.2 mM NaHCO3, 1 mg/mL glucose) to remove residual inorganic phosphate. After washing, assays contained serial dilutions of test compounds and 50 μM of cytidine-5′-monophosphate (CMP) in a total volume of 200 μL of assay buffer, with a final DMSO concentration ≤0.1%. After 2 hr at 37° C., 5% CO2, 100 μL of supernatant was removed from the cells and the concentration of inorganic phosphate was determined using malachite green reagent. IC50 values for test compounds were determined from nonlinear regression fits of the data using XLfit (IDBS).

[2] = biological target: T2, human CD73 (Homo sapiens, UniProt P21589); test: Inhibition of 5′-Nucleotidase Activity of CD73 (Assay 1); format: biochemical; settings: human CD73 4 ng/ml, 50 μM CMP, 20 min at RT, malachite green readout; read-out: Assay 1: IC50, inhibition of 5′-nucleotidase activity of CD73
T2 construct: purchased R&D Systems 5795-EN-010
T2 sequence (P21589 27-549): T1 sequence (P21589 27-549)
Method: Inhibition of 5′-Nucleotidase Activity of CD73 (Assay 1)
Compounds of the present invention were tested for the ability to inhibit CD73 enzyme activity. Tested compounds were dissolved in DMSO (50× final concentration), and 3.2 μL of the solutions added to 96-well polystyrene plates. To these wells were added, 100 μL of human CD73 (R&D Systems Cat. No. 5795-EN-010) and 57 μL of cytidine-5′-monophosphate (CMP) solutions in assay buffer (25 mM Tris-HCl, pH 7.4, 0.005% Brij-35) were added to achieve final concentrations in the assay of 4 ng/ml CD73 and 50 μM of CMP. The assay mixture was incubated for 20 min at RT. The reaction was stopped by addition of 40 μL of malachite green reagent which was prepared by mixing together 10 ml 2M H2SO4, 2.5 ml of 15% ammonium molybdate and 0.2 ml of 11% Tween-20. The mixture was agitated vigorously for 10 min at RT, and absorbance at 620 nm was determined on a microplate spectrophotometer. […] The IC50 values were derived using a non-linear 4 parameter logistic model (XLFit software, IDBS) and correspond to the inflection points on dose-response curves.

| SMILES | IC50 [1] | IC50 [2] |
| --- | --- | --- |
| CCOC(=O)[C@@H](OC[C@H]1O[C@@H](n2cnc3c(NC4CC4)nc(Cl)nc32)[C@H](O)[C@@H]1O)P(=O)(O)O (single isomer, unassigned) [Example 22a] | 100 to 1000 nM | 100 to 1000 nM |
| CC(C)(C)OC(=O)[C@@H](OC[C@H]1O[C@@H](n2cnc3c(N)nc(Cl)nc32)[C@H](O)[C@@H]1O)P(=O)(O)O (single isomer, unassigned) [Example 15a] | 100 to 1000 nM | 100 to 1000 nM |
| CCOC(=O)[C@@H](OC[C@H]1O[C@@H](n2cnc3c(C)nc(Cl)nc32)[C@H](O)[C@@H]1O)P(=O)(O)O (single isomer, unassigned) [Example 28a] | > 1000 nM | 100 to 1000 nM |
| CC(C)CNC(=O)[C@H](OC[C@H]1O[C@@H](n2cnc3c(N)nc(Cl)nc32)[C@H](O)[C@@H]1O)P(=O)(O)O (single isomer, unassigned) [Example 17] | < 100 nM | < 100 nM |
| CCS(=O)(=O)C(OC[C@H]1O[C@@H](n2cnc3c(N)nc(Cl)nc32)[C@H](O)[C@@H]1O)P(=O)(O)O (single isomer, unassigned) [Example 11a] | > 1000 nM | 100 to 1000 nM |
| CC(=O)NNC(=O)C(OC[C@H]1O[C@@H](n2cnc3c(N)nc(Cl)nc32)[C@H](O)[C@@H]1O)P(=O)(O)O (stereo partly drawn) [Example 20, (2-(2-acetylhydrazinyl)-1-(((2R,3S,4R,5R)-5-(6-amino-2-chloro-9H-purin-9-yl)-3,4-dihydroxytetrahydrofuran-2-yl)methoxy)-2-oxoethyl)phosphonic Acid] | 100 to 1000 nM | < 100 nM |
| COCC(OC[C@H]1O[C@@H](n2cnc3c(N)nc(Cl)nc32)[C@H](O)[C@@H]1O)(C(=O)O)C(=O)O [Example 5, 2-(((2R,3S,4R,5R)-5-(6-amino-2-chloro-9H-purin-9-yl)-3,4-dihydroxytetrahydrofuran-2-yl)methoxy)-2-(methoxymethyl)malonic acid] | < 100 nM | < 100 nM |
| CNc1nc(Cl)nc2c1ncn2[C@@H]1O[C@H](COC(C)(C(=O)O)C(=O)O)[C@@H](O)[C@H]1O [Example 2, (2-(((2R,3S,4R,5R)-5-(2-chloro-6-(methylamino)-9H-purin-9-yl)-3,4-dihydroxytetrahydrofuran-2-yl)methoxy)-2-methylmalonic Acid)] | 100 to 1000 nM | 100 to 1000 nM |
| CCOC(=O)[C@H](OC[C@H]1O[C@@H](n2cnc3c(OCC)nc(Cl)nc32)[C@H](O)[C@@H]1O)P(=O)(O)O (single isomer, unassigned) [Example 27] | 100 to 1000 nM | < 100 nM |
| CCOC(=O)[C@H](OC[C@H]1O[C@@H](n2cnc3c(C)nc(Cl)nc32)[C@H](O)[C@@H]1O)P(=O)(O)O (single isomer, unassigned) [Example 28] | < 100 nM | < 100 nM |
| CCOC(=O)[C@H](OC[C@H]1O[C@@H](n2cnc3c(NC4CCCC4)nc(Cl)nc32)[C@H](O)[C@@H]1O)P(=O)(O)O (single isomer, unassigned) [Example 25] | < 100 nM | < 100 nM |
| CCOC(=O)[C@@H](OC[C@H]1O[C@@H](n2cnc3c(NC4CCCC4)nc(Cl)nc32)[C@H](O)[C@@H]1O)P(=O)(O)O (single isomer, unassigned) [Example 25a] | < 100 nM | < 100 nM |

Other lines, results leading:

| IC50 [1] | IC50 [2] | SMILES |
| --- | --- | --- |
| > 1000 nM | 100 to 1000 nM | CCOC(=O)[C@H](OC[C@H]1O[C@@H](n2ccc(=O)n(C)c2=O)[C@H](O)[C@@H]1O)P(=O)(O)O (single isomer, unassigned) [Example 30] |
| > 1000 nM | 100 to 1000 nM | CCOC(=O)[C@H](OC[C@H]1C[C@@H](n2cnc3cccc(Br)c3c2=O)[C@H](O)[C@@H]1O)P(=O)(O)O (single isomer, unassigned) [Example 72] |
| 100 to 1000 nM | 100 to 1000 nM | CCOC(=O)[C@H](OC[C@H]1O[C@@H](n2cnc3c(N)nc(CC(C)C)nc32)[C@H](O)[C@@H]1O)P(=O)(O)O (single isomer, unassigned) [Example 46] |
| < 100 nM | < 100 nM | Nc1nc(Cl)nc2c1ncn2[C@@H]1O[C@H](COC(Cc2c(F)cccc2F)(C(=O)O)C(=O)O)[C@@H](O)[C@H]1O [Example 84, 2-(((2R,3S,4R,5R)-5-(6-amino-2-chloro-9H-purin-9-yl)-3,4-dihydroxytetrahydrofuran-2-yl)methoxy)-2-(2,6-difluorobenzyl)malonic acid] |
| < 100 nM | < 100 nM | Nc1nc(Cl)nc2c1ncn2[C@@H]1O[C@H](COC(C(=O)O)P(=O)(O)O)[C@@H](O)[C@H]1O (single isomer, unassigned) [Example 61] |
| 100 to 1000 nM | 100 to 1000 nM | CCNc1nc(Cl)nc2c1ncn2[C@@H]1O[C@H](CO[C@](C)(C(=O)OCC)P(=O)(O)O)[C@@H](O)[C@H]1O [Example 29a, ((S)-2-(((2R,3S,4R,5R)-5-(2-chloro-6-(ethylamino)-9H-purin-9-yl)-3,4-dihydroxytetrahydrofuran-2-yl)methoxy)-1-ethoxy-1-oxopropan-2-yl)phosphonic Acid] |
| < 100 nM | < 100 nM | CC(C)(C)OC(=O)[C@H](OC[C@H]1O[C@@H](n2cnc3c(N)nc(C#N)nc32)[C@H](O)[C@@H]1O)P(=O)(O)O (single isomer, unassigned) [Example 54] |
| < 100 nM | < 100 nM | Nc1nc(Cl)nc2c1ncn2[C@@H]1O[C@H](COC(Cc2nccs2)(C(=O)O)C(=O)O)[C@@H](O)[C@H]1O [Example 94, 2-(((2R,3S,4R,5R)-5-(6-amino-2-chloro-9H-purin-9-yl)-3,4-dihydroxytetrahydrofuran-2-yl)methoxy)-2-(thiazol-2-ylmethyl)malonic acid] |
| 100 to 1000 nM | < 100 nM | CCOC(=O)[C@H](OC[C@H]1O[C@@H](n2cnc3c(N)nc(C(F)(F)F)nc32)[C@H](O)[C@@H]1O)P(=O)(O)O (single isomer, unassigned) [Example 42] |
| > 1000 nM | > 1000 nM | CCOC(=O)[C@H](OC[C@H]1O[C@@H](n2cnc3c(N)nc(SCC)nc32)[C@H](O)[C@@H]1O)P(=O)(O)O (single isomer, unassigned) [Example 44] |
| < 100 nM | < 100 nM | CCOC(=O)[C@H](OC[C@H]1O[C@@H](n2cnc3c(N)nc(C#N)nc32)[C@H](O)[C@@H]1O)P(=O)(O)O (single isomer, unassigned) [Example 45] |
| > 1000 nM | 100 to 1000 nM | Cc1nc(C)c2ncn([C@@H]3O[C@H](COC(C(=O)O)P(=O)(O)O)[C@@H](O)[C@H]3O)c2n1 (stereo partly drawn) [Example 38, 2-(((2R,3S,4R,5R)-5-(2,6-dimethyl-9H-purin-9-yl)-3,4-dihydroxytetrahydrofuran-2-yl)methoxy)-2-phosphonoacetic acid] |
| < 100 nM | < 100 nM | CCOC(=O)C(OC[C@H]1C[C@@H](n2nnc3c(N[C@H]4CCOC4)nc(Cl)nc32)[C@H](O)[C@@H]1O)P(=O)(O)O (stereo partly drawn) [Example 91, (1-(((1R,2R,3S,4R)-4-(5-chloro-7-(((S)-tetrahydrofuran-3-yl)amino)-3H-[1,2,3]triazolo[4,5-d]pyrimidin-3-yl)-2,3-dihydroxycyclopentyl)methoxy)-2-ethoxy-2-oxoethyl)phosphonic Acid] |
| 100 to 1000 nM | < 100 nM | CCOC(=O)[C@H](OC[C@H]1O[C@@H](n2cnc3c(NC(=O)c4ccccc4)nc(Cl)nc32)[C@H](O)[C@@H]1O)P(=O)(O)O (single isomer, unassigned) [Example 36] |
